From paper PMC13077603, “Fluorine‐18‐Labeled Nucleotide Analogs Targeting Ecto‐5'‐Nucleotidase (CD73) for Positron Emission Tomography Imaging of Solid Tumors” (Angewandte Chemie (International Ed. in English), 2026)
Where “and” joins values, the source holds several entries; their conditions need not be identical. Equal entries are not always repeated.

Assays:
[1] = Stability in mouse liver microsomes (MLM); assay type: in vitro ADME; conditions: after 90 min of coincubation, 5 µM compound, 37 °C
Experimental: An aqueous buffer of 75 mM PBS, 12.5 mM MgCl2, 0.6 mM NADPH, 1 mg/mL mouse liver microsomes and 5 µM of the respective compound was prepared. 200 µL of these samples were incubated for 90 min at 37 °C and […]. Afterward, acetonitrile/methanol (400 µL, 1:1) was added, and the samples were cooled to 0 °C for 10 min. 600 µL buffer was added and the solution was centrifuged for 15 min at 17,880 g. The supernatant was centrifuged again for 15 min at 17,880 g and 4 °C. The obtained solution was diluted with H2O/CH3CN/CH3OH (1:1:1) to a suitable concentration for quantification. Shortly before injection into HPLC, the solution was centrifuged again for 2 min at 17,880 g and 4 °C. The amount of remaining compound in the solution was quantified by ion count in SIM mode via HPLC-MS (CH3CN/water). The injection volume was 50 µL. Every experiment was performed in triplicate.

[2] = biological target: T1, Mouse membrane‐bound CD73 (membrane preparation of 4T1.2 breast cancer cell line) (Mus musculus, UniProt Q61503); experiment: CD73 enzyme inhibition assay, mouse membrane-bound CD73; assay type: biochemical; conditions: membrane preparation of mouse 4T1.2 breast cancer cell line, Km 67.6 µM, substrate AMP (5 µM)
T1 construct: endogenous in cells; host or cells: 4T1.2 mouse breast cancer cell line, membrane preparation (as named in the result head)
T1 sequence (Q61503 29-576): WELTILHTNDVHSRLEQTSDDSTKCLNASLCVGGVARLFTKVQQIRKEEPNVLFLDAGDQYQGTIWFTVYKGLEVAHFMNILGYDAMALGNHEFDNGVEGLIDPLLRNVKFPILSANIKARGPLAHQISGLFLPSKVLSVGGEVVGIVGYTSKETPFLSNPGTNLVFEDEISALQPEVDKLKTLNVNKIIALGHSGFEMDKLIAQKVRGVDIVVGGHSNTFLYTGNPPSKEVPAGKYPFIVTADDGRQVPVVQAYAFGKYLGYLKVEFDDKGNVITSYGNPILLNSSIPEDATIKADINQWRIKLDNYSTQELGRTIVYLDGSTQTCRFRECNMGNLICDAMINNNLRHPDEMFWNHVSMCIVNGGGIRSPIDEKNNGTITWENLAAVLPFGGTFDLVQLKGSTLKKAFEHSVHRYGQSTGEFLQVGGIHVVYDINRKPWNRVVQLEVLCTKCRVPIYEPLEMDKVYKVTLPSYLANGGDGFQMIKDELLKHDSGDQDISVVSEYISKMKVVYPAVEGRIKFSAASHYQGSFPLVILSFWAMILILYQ
Experimental: Both compounds were evaluated for metabolic stability in mouse liver microsomes (MLM) and plasma protein binding (PPB) (Table 1).
The CD73 enzyme inhibition assay of recombinant soluble CD73, membrane-bound human CD73, soluble rat CD73 and mouse CD73 was performed as previously described.^[16,35^]

- Metabolic stability in mouse liver microsomes (MLM): % decomposition [1]: 17 ± 2% and 17%
- Ki [2]: 47.8 nM
Structure (SMILES): CCCN(Cc1ccc(-c2cn(CCF)nn2)cc1)c1nc(Cl)nc2c1ncn2[C@@H]1O[C@H](COP(=O)(O)CP(=O)(O)O)[C@@H](O)[C@H]1O [compound 1]
